{"source": "patent US20110053160A1", "about": "“HCV NS3/4A REPLICON SHUTTLE VECTORS” (priority 2009, published 2011)", "key": {"[1]": {"tested_on": "HCV GT-1b Con1 replicon pPI-luc/ET/SC in cured Huh7 cells", "assay": "Transient replicon assay, IC50 determination (firefly luciferase reporter), parent replicon", "type": "cell-based", "details": "Hepatitis C virus, GT1B, Huh-7, luciferase read 72 hours after addition of inhibitor, read-out: IC50 VX-950"}, "[2]": {"assay": "Transient replicon assay, IC50 determination (firefly luciferase reporter), shuttle vector replicons with patient-derived NS3/4A", "type": "cell-based, HCV", "details": "Hepatitis C virus, Huh-7, 72 h, luciferase read 72 hours after addition of inhibitor, read-out: IC50 VX-950", "procedure": "DNA sequences encoding the NS3/4A protein were generated from plasma obtained from patients infected with HCV using reverse transcription of RNA followed by PCRamplification of the reverse-transcribed product. Reverse transcription of RNA was performed using Taqman Reverse Transcription Reagents (Applied Biosystems, Foster City, Calif., USA) using the primer, 5′-ACCAGGTCCTCSGTGGAGG-3′ (SEQ ID NO:9) and according to the manufacturers' protocol. The synthesized cDNA was then PCR-amplified with the GC RICH PCR system (Roche Applied Science) to ensure high fidelity and robust yields. Annealing temperatures in the range of 50-52° C. were used depending on patient sample and primer combinations. Two PCR reactions with two independent primer sets used for the first round PCR were as follows:\nFive micrograms of DNA was linearized by Sca I restriction enzyme (Roche Applied Science). After overnight digestion at 37° C., the DNA was purified using Qiagen PCR purification kit. Eight microliters of linearized DNA was used for the in vitro transcription using T7 RiboMAX Express Large Scale RNA Production System kit following manufacturer's protocol (Promega, Madison, Wis., USA). After 2 hours of incubation at 37° C., DNase treatment was performed for 20 minutes at 37° C. to remove the DNA template. In vitro transcribed RNA was then purified using RNeasy mini kit following manufacturer's protocol (Qiagen).\nCured hepatoma cell line Huh7 was obtained from R. Bartenschlager. Cells were cultured at 37° C. in a humidified atmosphere with 5% CO2 in Dulbecco's Modified Eagle Medium (DMEM) supplemented with Glutamax and […] sodium pyruvate (Cat# 10569-010). The medium was further supplemented with 10% (v/v) FBS (Cat# 16000-036) and 1% (v/v) penicillin/streptomycin (Cat# 15140-122). All reagents were from Invitrogen.\nFour million cured Huh7 cells were transfected with 10 μg of in vitro transcribed RNA using electroporation. Cells were then resuspended in 12 ml of DMEM containing 5% FBS and plated in 96-well plate at 28,800 cells/well (in 90 μl final volume) Inhibitors were added 24 hours post-transfection in 3 fold dilutions at a final DMSO concentration of 1% and firefly luciferase reporter signal was read 72 hours after addition of inhibitors using the Luciferase Assay system (Promega, cat #E1501). The IC50 values were assessed as the inhibitor concentration at which a 50% reduction in the level of firefly luciferase reporter was observed as compared to the level of firefly luciferase signal without the addition of compounds. […]"}}, "note": "Read-outs that look alike come from different tables or passages of the source.", "data": [{"smiles": "CCC[C@H](NC(=O)[C@@H]1[C@H]2CCC[C@H]2CN1C(=O)[C@@H](NC(=O)[C@@H](NC(=O)c1cnccn1)C1CCCCC1)C(C)(C)C)C(=O)C(=O)NC1CC1", "note": "[VX-950]", "values": [{"measurement": "IC50", "setting": "[1]", "result": 253, "unit": "nM"}, {"measurement": "IC50", "setting": "[2]; patient isolate 34", "result": 268, "unit": "nM"}, {"measurement": "IC50", "setting": "[2]; patient isolate 98", "result": 205, "unit": "nM"}, {"measurement": "IC50", "setting": "[2]; patient isolate 5903", "result": 97, "unit": "nM"}, {"measurement": "IC50", "setting": "[2]; patient isolate 34026", "result": 48, "unit": "nM"}, {"measurement": "IC50", "setting": "[2]; patient isolate 52620", "result": 92, "unit": "nM"}, {"measurement": "IC50", "setting": "[2]; patient isolate 61793", "result": 381, "unit": "nM"}, {"measurement": "IC50", "setting": "[2]; patient isolate 66200", "result": 332, "unit": "nM"}, {"measurement": "IC50", "setting": "[2]; patient isolate 73837-2", "result": 228, "unit": "nM"}, {"measurement": "IC50", "setting": "[2]; patient isolate 135635", "result": 394, "unit": "nM"}, {"measurement": "IC50", "setting": "[2]; patient isolate 135640", "result": 385, "unit": "nM"}, {"measurement": "IC50", "setting": "[2]; patient isolate 135641", "result": 175, "unit": "nM"}, {"measurement": "IC50", "setting": "[2]; patient isolate 135649", "result": 108, "unit": "nM"}, {"measurement": "IC50", "setting": "[2]; patient isolate RO256", "result": 93, "unit": "nM"}]}]}
